According to the kinase profiling compilation of Christmann-Franck et al. (2016):

Assays:
Test in all cases: radiometric filter-binding kinase assay, Kinase HotSpot
Settings in all cases: compound 0.5 µM; ATP 10 µM
CDK7 CCNH MNAT1 (human) = CDK7 CCNH MNAT1 (human) (UniProt P50613+P51948+P51946)
MERTK (human) = MERTK (human) (UniProt Q12866)
CSNK1G1 (human) = CSNK1G1 (human) (UniProt Q9HCP0)
MAP2K1 (human) = MAP2K1 (human) (UniProt Q02750)
GSK3B (human) = GSK3B (human) (UniProt P49841)
RAF1 (human) = RAF1 (human) (UniProt P04049)
Sequence of RAF1 (human) (P04049 whole entry, looked up): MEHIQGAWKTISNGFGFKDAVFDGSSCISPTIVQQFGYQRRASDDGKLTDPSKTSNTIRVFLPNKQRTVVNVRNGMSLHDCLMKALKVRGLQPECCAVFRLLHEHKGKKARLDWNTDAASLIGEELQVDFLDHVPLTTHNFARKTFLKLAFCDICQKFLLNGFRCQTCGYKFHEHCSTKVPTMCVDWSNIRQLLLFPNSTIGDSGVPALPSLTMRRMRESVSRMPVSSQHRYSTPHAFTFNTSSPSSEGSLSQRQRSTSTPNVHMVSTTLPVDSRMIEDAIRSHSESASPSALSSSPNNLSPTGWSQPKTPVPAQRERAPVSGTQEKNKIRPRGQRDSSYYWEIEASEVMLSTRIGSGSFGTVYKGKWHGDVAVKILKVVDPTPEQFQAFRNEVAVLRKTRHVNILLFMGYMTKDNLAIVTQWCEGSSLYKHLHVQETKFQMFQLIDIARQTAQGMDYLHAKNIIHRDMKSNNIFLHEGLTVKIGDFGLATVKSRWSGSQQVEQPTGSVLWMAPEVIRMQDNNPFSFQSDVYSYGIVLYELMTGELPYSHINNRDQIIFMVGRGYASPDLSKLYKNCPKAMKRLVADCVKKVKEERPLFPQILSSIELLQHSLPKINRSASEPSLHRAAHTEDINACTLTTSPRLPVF

HIPK1 (human) = HIPK1 (human) (UniProt Q86Z02)
MAPK3 (human) = MAPK3 (human) (UniProt P27361)
CAMK2D (human) = CAMK2D (human) (UniProt Q13557)
SRPK3 (human) = SRPK3 (human) (UniProt Q9UPE1)
PHKG1 (human) = PHKG1 (human) (UniProt Q16816)
AURKA (human) = AURKA (human) (UniProt O14965)
PLK1 (human) = PLK1 (human) (UniProt P53350)
DYRK1B (human) = DYRK1B (human) (UniProt Q9Y463)
EPHA8 (human) = EPHA8 (human) (UniProt P29322)
Sequence of EPHA8 (human) (P29322 whole entry, looked up): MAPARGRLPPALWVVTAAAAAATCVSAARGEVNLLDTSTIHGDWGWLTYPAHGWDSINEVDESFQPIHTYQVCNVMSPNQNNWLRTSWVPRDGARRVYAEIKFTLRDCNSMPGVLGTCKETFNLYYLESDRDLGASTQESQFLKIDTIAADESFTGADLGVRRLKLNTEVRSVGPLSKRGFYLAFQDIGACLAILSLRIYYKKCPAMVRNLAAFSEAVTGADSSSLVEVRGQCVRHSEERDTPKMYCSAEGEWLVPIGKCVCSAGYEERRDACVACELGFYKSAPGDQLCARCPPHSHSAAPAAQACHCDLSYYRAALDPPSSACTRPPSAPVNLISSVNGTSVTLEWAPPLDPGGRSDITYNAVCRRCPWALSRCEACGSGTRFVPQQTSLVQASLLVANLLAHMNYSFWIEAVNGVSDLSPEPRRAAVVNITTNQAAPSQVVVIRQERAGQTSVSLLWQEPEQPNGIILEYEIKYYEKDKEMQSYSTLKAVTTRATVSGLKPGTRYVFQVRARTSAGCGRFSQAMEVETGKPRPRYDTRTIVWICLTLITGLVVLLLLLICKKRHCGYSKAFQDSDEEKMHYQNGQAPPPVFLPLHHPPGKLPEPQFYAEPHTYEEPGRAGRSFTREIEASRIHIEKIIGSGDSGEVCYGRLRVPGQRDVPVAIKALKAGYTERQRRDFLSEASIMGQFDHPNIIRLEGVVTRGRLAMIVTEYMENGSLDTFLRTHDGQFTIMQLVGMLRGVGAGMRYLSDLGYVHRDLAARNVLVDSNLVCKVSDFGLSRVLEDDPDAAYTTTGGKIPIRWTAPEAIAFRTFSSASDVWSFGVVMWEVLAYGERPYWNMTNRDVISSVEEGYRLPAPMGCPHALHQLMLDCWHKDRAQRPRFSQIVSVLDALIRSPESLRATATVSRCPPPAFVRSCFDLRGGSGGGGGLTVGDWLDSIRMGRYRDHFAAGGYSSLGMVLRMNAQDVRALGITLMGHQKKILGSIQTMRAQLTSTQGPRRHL

AKT1 (human) = AKT1 (human) (UniProt P31749)
MAPKAPK5 (human) = MAPKAPK5 (human) (UniProt Q8IW41)
MAPKAPK3 (human) = MAPKAPK3 (human) (UniProt Q16644)
PBK (human) = PBK (human) (UniProt Q96KB5)
SLK (human) = SLK (human) (UniProt Q9H2G2)
Sequence of SLK (human) (Q9H2G2 whole entry, looked up): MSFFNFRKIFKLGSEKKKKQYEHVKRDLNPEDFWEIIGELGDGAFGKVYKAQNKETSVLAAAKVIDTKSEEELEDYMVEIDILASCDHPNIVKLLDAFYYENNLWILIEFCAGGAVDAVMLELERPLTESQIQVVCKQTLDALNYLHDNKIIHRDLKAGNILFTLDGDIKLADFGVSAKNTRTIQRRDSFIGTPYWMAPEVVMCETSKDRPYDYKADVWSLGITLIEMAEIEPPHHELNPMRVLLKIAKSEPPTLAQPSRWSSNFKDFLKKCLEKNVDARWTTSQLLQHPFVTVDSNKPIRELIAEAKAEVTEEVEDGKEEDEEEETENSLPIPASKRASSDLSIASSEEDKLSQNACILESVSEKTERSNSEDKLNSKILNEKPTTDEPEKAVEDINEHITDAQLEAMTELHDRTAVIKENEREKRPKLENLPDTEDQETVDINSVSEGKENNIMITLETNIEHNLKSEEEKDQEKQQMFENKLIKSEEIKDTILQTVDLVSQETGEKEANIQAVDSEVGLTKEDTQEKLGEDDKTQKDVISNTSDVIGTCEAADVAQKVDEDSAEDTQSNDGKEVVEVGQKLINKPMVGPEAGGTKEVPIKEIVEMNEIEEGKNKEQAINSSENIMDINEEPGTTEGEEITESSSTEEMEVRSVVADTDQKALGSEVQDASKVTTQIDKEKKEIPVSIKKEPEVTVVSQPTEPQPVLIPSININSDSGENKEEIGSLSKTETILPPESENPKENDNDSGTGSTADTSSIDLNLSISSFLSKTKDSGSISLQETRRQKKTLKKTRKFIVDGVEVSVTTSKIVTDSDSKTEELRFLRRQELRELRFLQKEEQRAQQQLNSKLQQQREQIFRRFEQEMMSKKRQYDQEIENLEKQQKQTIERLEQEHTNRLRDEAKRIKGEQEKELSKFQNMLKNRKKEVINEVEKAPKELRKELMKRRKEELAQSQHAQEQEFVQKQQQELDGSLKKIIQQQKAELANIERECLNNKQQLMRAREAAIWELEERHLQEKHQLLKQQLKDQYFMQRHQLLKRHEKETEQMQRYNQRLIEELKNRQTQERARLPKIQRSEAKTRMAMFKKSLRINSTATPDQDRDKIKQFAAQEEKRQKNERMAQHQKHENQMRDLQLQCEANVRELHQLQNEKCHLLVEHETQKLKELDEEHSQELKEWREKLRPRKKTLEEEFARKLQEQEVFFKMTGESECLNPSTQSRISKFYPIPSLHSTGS

PIM1 (human) = PIM1 (human) (UniProt P11309)
EPHB3 (human) = EPHB3 (human) (UniProt P54753)
PKN2 (human) = PKN2 (human) (UniProt Q16513)
EPHA2 (human) = EPHA2 (human) (UniProt P29317)
CSF1R (human) = CSF1R (human) (UniProt P07333)
NUAK2 (human) = NUAK2 (human) (UniProt Q9H093)
PRKCA (human) = PRKCA (human) (UniProt P17252)
INSR (human) = INSR (human) (UniProt P06213)
MAPK11 (human) = MAPK11 (human) (UniProt Q15759)
IRAK4 (human) = IRAK4 (human) (UniProt Q9NWZ3)
STK16 (human) = STK16 (human) (UniProt O75716)
Sequence of STK16 (human) (O75716 whole entry, looked up): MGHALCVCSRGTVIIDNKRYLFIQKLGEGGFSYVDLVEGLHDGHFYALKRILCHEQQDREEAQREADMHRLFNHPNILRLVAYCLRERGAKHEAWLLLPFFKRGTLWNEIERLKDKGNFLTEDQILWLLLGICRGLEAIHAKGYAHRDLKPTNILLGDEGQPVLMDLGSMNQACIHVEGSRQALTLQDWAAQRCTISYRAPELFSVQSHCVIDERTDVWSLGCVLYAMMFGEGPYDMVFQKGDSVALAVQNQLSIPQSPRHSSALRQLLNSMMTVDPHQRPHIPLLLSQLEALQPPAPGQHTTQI

MLTK (human) = MLTK (human) (UniProt Q9NYL2)
Sequence of MLTK (human) (Q9NYL2 whole entry, looked up): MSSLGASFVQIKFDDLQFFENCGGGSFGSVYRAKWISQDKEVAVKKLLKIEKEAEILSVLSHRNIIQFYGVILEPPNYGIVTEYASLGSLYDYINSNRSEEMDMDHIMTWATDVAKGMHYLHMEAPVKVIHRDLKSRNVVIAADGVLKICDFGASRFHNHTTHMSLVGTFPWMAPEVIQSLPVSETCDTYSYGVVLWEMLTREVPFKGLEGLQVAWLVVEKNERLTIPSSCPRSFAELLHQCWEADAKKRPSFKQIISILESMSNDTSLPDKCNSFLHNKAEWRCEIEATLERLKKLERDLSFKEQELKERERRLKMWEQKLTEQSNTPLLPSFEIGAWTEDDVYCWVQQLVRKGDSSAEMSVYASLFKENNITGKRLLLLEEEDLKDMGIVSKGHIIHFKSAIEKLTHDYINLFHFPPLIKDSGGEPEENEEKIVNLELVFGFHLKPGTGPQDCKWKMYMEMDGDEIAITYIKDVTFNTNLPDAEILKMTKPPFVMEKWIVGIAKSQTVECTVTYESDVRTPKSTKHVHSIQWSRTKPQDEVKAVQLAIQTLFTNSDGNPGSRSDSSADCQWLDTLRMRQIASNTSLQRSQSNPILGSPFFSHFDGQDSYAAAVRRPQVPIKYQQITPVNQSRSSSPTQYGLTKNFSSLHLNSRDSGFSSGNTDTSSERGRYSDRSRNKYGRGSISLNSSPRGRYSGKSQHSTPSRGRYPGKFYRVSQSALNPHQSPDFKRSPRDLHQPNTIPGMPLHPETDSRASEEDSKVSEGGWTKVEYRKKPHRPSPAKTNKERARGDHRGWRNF

PTK6 (human) = PTK6 (human) (UniProt Q13882)
ERBB2 (human) = ERBB2 (human) (UniProt P04626)
AURKC (human) = AURKC (human) (UniProt Q9UQB9)
NEK3 (human) = NEK3 (human) (UniProt P51956)
Sequence of NEK3 (human) (P51956 whole entry, looked up): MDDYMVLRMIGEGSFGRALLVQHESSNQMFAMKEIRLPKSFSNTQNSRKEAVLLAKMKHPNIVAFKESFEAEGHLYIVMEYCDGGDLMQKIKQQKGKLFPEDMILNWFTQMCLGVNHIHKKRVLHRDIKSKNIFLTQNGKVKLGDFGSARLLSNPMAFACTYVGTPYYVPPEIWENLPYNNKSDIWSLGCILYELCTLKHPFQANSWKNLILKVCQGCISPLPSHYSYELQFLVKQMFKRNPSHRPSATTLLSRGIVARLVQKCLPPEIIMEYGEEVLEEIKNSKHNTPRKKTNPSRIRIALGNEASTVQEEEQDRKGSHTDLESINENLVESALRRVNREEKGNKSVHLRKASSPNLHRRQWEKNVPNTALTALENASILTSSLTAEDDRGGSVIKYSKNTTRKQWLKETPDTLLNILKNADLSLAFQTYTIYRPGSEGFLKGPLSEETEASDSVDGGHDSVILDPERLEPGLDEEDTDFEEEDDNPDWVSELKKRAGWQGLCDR

OXSR1 (human) = OXSR1 (human) (UniProt O95747)
NEK6 (human) = NEK6 (human) (UniProt Q9HC98)
NTRK2 (human) = NTRK2 (human) (UniProt Q16620)
[1] = molecular target: JAK1 JH1 catalytic (human) (UniProt P23458)
PAK3 (human) = PAK3 (human) (UniProt O75914)
Sequence of PAK3 (human) (O75914 whole entry, looked up): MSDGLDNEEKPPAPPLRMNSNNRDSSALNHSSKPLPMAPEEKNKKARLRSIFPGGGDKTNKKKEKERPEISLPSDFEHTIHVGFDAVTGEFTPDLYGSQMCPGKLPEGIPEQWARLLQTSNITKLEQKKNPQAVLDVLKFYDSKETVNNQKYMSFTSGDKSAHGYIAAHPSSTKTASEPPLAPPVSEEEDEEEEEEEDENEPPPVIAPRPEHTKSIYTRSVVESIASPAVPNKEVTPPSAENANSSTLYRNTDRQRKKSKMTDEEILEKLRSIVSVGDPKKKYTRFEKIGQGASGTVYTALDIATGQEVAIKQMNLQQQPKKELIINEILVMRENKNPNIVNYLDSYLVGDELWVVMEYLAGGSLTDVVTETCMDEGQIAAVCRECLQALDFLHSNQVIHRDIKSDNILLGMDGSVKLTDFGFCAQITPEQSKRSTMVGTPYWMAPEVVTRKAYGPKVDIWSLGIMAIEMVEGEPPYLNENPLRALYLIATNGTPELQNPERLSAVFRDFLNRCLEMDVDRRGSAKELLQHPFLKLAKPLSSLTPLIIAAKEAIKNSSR

PRKCH (human) = PRKCH (human) (UniProt P24723)

COc1cc2ncnc(Nc3ccc(F)c(Cl)c3)c2cc1OCCCN1CCOCC1
residual activity (CDK7 CCNH MNAT1 (human)): 105% | residual activity (MERTK (human)): 95.9% | residual activity (CSNK1G1 (human)): 99.5% | residual activity (MAP2K1 (human)): 107% | residual activity (GSK3B (human)): 100% | residual activity (RAF1 (human)): 90.9% | residual activity (HIPK1 (human)): 97.6% | residual activity (MAPK3 (human)): 100% | residual activity (CAMK2D (human)): 92.4% | residual activity (SRPK3 (human)): 103% | residual activity (PHKG1 (human)): 68.8% | residual activity (AURKA (human)): 95.3% | residual activity (PLK1 (human)): 97% | residual activity (DYRK1B (human)): 91.9% | residual activity (EPHA8 (human)): 84.5% | residual activity (AKT1 (human)): 94.1% | residual activity (MAPKAPK5 (human)): 92.7% | residual activity (MAPKAPK3 (human)): 99.6% | residual activity (PBK (human)): 102% | residual activity (SLK (human)): 83.7% | residual activity (PIM1 (human)): 86.4% | residual activity (EPHB3 (human)): 57.5% | residual activity (PKN2 (human)): 93.1% | residual activity (EPHA2 (human)): 85.7% | residual activity (CSF1R (human)): 110% | residual activity (NUAK2 (human)): 96% | residual activity (PRKCA (human)): 93.6% | residual activity (INSR (human)): 107% | residual activity (MAPK11 (human)): 95.1% | residual activity (IRAK4 (human)): 78.8% | residual activity (STK16 (human)): 96.8% | residual activity (MLTK (human)): 96.2% | residual activity (PTK6 (human)): 77.2% | residual activity (ERBB2 (human)): 34.2% | residual activity (AURKC (human)): 89.7% | residual activity (NEK3 (human)): 94.4% | residual activity (OXSR1 (human)): 101% | residual activity (NEK6 (human)): 89.9% | residual activity (NTRK2 (human)): 98.2% | residual activity [1]: 102% | residual activity (PAK3 (human)): 106%

Nc1nc(Nc2ccc(S(N)(=O)=O)cc2)nn1C(=S)Nc1c(F)cccc1F
residual activity (CDK7 CCNH MNAT1 (human)): 43.6% | residual activity (MERTK (human)): 14.8% | residual activity (CSNK1G1 (human)): 16.7% | residual activity (MAP2K1 (human)): 94.6% | residual activity (GSK3B (human)): 9.03% | residual activity (RAF1 (human)): 110% | residual activity (HIPK1 (human)): 105% | residual activity (MAPK3 (human)): 78.9% | residual activity (CAMK2D (human)): 15.6% | residual activity (SRPK3 (human)): 48.7% | residual activity (PHKG1 (human)): 26% | residual activity (AURKA (human)): 1.44% | residual activity (PLK1 (human)): 92.1% | residual activity (DYRK1B (human)): 14.1% | residual activity (EPHA8 (human)): 98.5% | residual activity (AKT1 (human)): 103% | residual activity (MAPKAPK5 (human)): 52.2% | residual activity (MAPKAPK3 (human)): 89.6% | residual activity (PBK (human)): 105% | residual activity (SLK (human)): 4.58% | residual activity (PIM1 (human)): 90.7% | residual activity (EPHB3 (human)): 90.4% | residual activity (PKN2 (human)): 19.1% | residual activity (EPHA2 (human)): 29.9% | residual activity (CSF1R (human)): 10.6% | residual activity (PRKCH (human)): 45.7% | residual activity (NUAK2 (human)): 9.73% | residual activity (PRKCA (human)): 46.2% | residual activity (MAPK11 (human)): 78.5% | residual activity (IRAK4 (human)): 19.6% | residual activity (STK16 (human)): 42.5% | residual activity (MLTK (human)): 49.1% | residual activity (PTK6 (human)): 34.8% | residual activity (ERBB2 (human)): 104% | residual activity (AURKC (human)): 16.2% | residual activity (NEK3 (human)): 19.6% | residual activity (OXSR1 (human)): 67.6% | residual activity (NEK6 (human)): 78.8% | residual activity (NTRK2 (human)): 11.8% | residual activity [1]: 4.86% | residual activity (PAK3 (human)): 35.4%
